Results: US20250163456A1, “AGENT FOR ENHANCING PRODUCTION OF VIRAL VECTOR AND METHOD FOR PRODUCING VIRAL VECTOR” (priority 2022, published 2025)

Tested on: HEK293 cells
Assay: Evaluation of AAV vector-producing ability by treatment with chemical substance (rAAV1 virus titer by qPCR)
Format: cell-based, human
Settings: HEK293 cells producing rAAV1, serum-free E-MEM with chemical substance at various concentrations, 3 days culture, virus titer (v.g.) vs untreated control
Experimental: The cells of the immortalized cell line derived from the human embryonic kidney (HEK293 cells) purchased from ATCC (American Type Culture Collection) were cultured in E-MEM supplemented with 10% fetal bovine serum, penicillin, and streptomycin at 37° C. in the presence of 5% CO2.
The recombinant adeno-associated virus 1 (rAAV1) was prepared with the use of 3 types of plasmids: pAAV-ZsGreen1 (TaKaRa Bio), pAAV2/1, and pHelper. A mixture of 3 types of plasmids for preparation of rAAV1 was adjusted to bring the mixing ratio of DNA to Polyethylenimine Max (PEI:Polysciences) (DNA:PEI) to 1:2 in OPTI-MEM, and the reaction was allowed to proceed at room temperature for 15 minutes. […]
Genome DNA of rAAV1 was extracted to measure the virus titer. […] The virus titer was measured by real-time PCR in triplicate. qPCR was performed using primers targeting Zs-Green 1. […]
In the present example, effects of enhancing production of AAV vectors achieved with the use of chemical substances different from the chemical substances tested in Example 1 were measured in the same manner as in Example 1.
In the present comparative example, effects of enhancing production of AAV vectors were measured in the same manner as in Example 1, except for the use of ascorbic acid (2.5, 5, or 10 μg/ml) disclosed in the examples of WO 2021/138387. […]

O=C1O[C@H]([C@@H](O)CO)C(O)=C1O [ascorbic acid]
effects of enhancing the amount of production of AAV vectors: no significant differences were observed
